In paper PMC3530200 (Bioorganic & medicinal chemistry letters, 2012):
Numbered stars: 1 amine (or outer) side, 2 acyl side, 3 side chain; on linkers, the order of the positions; unused ones are H or OH. Square brackets hold non-standard residues; d marks the D form. Peptide text beside a SMILES is read from it. X2 = O=C([C@H](Cc1cn(CCCCCCCCc2ccccc2)c2ccccc12)N[*:1])[*:2]; X1 = O=C([C@H](Cc1cn(CCCCCCCCc2ccccc2)cn1)N[*:1])[*:2]; pT = C[C@@H](OP(=O)(O)O)[C@H](N)C(=O)O

Biological target: Plk1 PBD (Homo sapiens, UniProt P53350)
Sequence (P53350 whole entry): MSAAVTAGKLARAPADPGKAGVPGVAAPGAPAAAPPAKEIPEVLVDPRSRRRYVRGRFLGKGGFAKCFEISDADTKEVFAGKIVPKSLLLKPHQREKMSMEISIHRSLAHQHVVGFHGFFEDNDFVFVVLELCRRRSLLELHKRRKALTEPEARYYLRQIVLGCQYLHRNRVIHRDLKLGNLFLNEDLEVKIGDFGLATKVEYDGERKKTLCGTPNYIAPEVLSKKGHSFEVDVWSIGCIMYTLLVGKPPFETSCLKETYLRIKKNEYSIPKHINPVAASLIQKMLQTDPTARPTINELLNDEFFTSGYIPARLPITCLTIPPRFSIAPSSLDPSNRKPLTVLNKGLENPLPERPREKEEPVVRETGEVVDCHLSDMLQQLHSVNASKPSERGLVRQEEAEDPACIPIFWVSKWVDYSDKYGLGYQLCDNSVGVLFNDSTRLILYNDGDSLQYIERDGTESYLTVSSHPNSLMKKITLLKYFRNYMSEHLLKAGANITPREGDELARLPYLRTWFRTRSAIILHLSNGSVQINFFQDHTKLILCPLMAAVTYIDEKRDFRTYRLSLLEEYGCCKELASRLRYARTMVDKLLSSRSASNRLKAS
Experiment: ELISA-based Plk1 PBD-binding inhibition assay

## CC(=O)N1CCC[C@H]1C(=O)N[C@@H](CC(C)C)C(=O)N[C@@H](Cc1cn(CCCCCCCCc2ccccc2)cn1)C(=O)N[C@@H](CO)C(=O)N[C@H](C(N)=O)[C@@H](C)OP(=O)(O)O [1c] (Ac-PL[X1]S[pT]-NH2; N-terminus and C-terminus assumed)
Ratio of IC50 relative to 1b
  fold less affinity than 1b: approximately 50 fold

## CC(=O)N1CCC[C@H]1C(=O)N[C@@H](CC(C)C)C(=O)N[C@@H](Cc1cn(CCCCCCCCc2ccccc2)c2ccccc12)C(=O)N[C@@H](CO)C(=O)N[C@H](C(N)=O)[C@@H](C)OP(=O)(O)O [1d] (Ac-PL[X2]S[pT]-NH2; N-terminus and C-terminus assumed)
Ratio of IC50 relative to 1c
  fold less affinity than 1c: approximately 30 fold

## PLHST [reference compound]
Even at the highest concentration tested (300 μM)
  affinity of non-phosphorylated control peptide: negligible affinity
